Among the data in ChEMBL document CHEMBL1909046, “DrugMatrix in vitro pharmacology data” are IC50 and Ki values, retold here.

Assay [1] concerns the target Histamine H2 receptor (Homo sapiens, UniProt P25021). The assay is classed as cell membranes, CHO-K1, Membrane. To be noted: cho-k1. Further: in other assays of this panel Not Active means under 50% inhibition at 10 µM.
Assay [2] addresses T1, 5-hydroxytryptamine receptor 1A (Rattus norvegicus, UniProt P19327).
T1 sequence (P19327 whole entry): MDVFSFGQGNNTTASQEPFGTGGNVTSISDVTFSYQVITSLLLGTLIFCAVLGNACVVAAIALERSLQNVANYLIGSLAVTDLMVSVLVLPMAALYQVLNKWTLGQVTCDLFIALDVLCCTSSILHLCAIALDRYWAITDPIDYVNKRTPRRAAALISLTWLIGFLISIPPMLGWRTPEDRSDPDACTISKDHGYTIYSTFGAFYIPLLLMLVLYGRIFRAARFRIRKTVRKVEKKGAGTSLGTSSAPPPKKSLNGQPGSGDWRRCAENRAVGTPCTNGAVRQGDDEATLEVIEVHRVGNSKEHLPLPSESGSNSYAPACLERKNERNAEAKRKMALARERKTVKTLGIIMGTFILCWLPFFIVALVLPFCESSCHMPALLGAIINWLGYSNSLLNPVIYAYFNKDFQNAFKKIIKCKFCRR
The assay is classed as cell membranes, CHO-K1, Membrane.

The nature of assay [3]: DRUGMATRIX: Tumor Necrosis Factor (TNF), Non-Selective radioligand binding (ligand: [125I] TNF-alpha). To be noted: u-937; Not Active = under 50% inhibition at 10 µM. It counts as cell membranes, Membrane.
Assay [4] addresses Mitogen-activated protein kinase 1 (Homo sapiens, UniProt P28482). Nature of the assay: DRUGMATRIX: Protein Serine/Threonine Kinase, ERK2 enzyme inhibition (substrate: Myelin Basic Protein). To be noted: Not Active = under 50% inhibition at 10 µM. More on the design: species or system Escherichia coli.
Assay [5] concerns the target Sodium-dependent noradrenaline transporter (Homo sapiens, UniProt P23975). The assay is described as follows: DRUGMATRIX: Norepinephrine Transporter radioligand binding (ligand: [125I] RTI-55). The assay is classed as cell membranes, MDCK, Membrane. Particulars: mdck; Not Active = under 50% inhibition at 10 µM.
The target in assay [6] is T2, 5-hydroxytryptamine receptor 2C (Homo sapiens, UniProt P28335).
T2 sequence (P28335 whole entry): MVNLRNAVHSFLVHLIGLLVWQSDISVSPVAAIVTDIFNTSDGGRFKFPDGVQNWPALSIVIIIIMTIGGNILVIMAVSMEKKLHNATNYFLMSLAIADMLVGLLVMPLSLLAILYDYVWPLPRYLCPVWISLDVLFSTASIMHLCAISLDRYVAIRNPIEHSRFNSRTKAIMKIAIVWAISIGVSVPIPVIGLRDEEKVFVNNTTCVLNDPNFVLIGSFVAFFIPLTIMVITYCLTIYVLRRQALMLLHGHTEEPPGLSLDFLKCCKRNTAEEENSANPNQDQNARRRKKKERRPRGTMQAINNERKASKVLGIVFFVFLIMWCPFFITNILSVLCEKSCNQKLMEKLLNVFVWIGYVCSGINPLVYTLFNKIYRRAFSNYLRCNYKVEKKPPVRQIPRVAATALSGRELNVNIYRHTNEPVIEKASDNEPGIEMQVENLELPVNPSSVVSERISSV
The assay is described as follows: DRUGMATRIX: Serotonin (5-Hydroxytryptamine) 5-HT2C radioligand binding (ligand: [3H] Mesulergine). The assay is classed as cell membranes, CHO-K1, Membrane. Particulars: Not Active = under 50% inhibition at 10 µM; for Ki: read-out: Ki.

Histamine H2 receptor, sequence (P25021 whole entry): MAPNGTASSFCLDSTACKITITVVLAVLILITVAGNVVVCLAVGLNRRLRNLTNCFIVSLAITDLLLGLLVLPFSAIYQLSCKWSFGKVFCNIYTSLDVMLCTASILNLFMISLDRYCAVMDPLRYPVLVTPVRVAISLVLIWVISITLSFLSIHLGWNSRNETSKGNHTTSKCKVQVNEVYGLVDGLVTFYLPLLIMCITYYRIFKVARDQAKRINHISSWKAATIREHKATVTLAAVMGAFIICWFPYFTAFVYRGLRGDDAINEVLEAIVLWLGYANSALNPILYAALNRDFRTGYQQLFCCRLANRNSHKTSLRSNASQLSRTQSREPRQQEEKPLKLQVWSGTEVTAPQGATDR
Sodium-dependent noradrenaline transporter, sequence (P23975 whole entry): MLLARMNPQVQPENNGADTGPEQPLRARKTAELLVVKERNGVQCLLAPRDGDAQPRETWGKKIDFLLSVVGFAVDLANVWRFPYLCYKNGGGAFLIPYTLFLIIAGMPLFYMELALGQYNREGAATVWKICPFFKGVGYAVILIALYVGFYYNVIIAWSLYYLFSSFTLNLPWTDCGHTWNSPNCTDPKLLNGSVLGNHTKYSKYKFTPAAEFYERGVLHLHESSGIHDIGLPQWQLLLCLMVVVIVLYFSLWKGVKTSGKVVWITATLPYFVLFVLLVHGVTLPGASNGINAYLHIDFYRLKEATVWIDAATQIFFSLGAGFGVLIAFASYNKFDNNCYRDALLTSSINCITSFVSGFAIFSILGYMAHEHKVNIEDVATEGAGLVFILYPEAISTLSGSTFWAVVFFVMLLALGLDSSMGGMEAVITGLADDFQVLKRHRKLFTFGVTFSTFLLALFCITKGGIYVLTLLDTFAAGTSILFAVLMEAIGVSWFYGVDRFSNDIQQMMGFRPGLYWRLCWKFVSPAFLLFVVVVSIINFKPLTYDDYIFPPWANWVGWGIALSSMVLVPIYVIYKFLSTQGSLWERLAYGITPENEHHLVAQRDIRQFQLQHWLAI
Mitogen-activated protein kinase 1, sequence (P28482 whole entry): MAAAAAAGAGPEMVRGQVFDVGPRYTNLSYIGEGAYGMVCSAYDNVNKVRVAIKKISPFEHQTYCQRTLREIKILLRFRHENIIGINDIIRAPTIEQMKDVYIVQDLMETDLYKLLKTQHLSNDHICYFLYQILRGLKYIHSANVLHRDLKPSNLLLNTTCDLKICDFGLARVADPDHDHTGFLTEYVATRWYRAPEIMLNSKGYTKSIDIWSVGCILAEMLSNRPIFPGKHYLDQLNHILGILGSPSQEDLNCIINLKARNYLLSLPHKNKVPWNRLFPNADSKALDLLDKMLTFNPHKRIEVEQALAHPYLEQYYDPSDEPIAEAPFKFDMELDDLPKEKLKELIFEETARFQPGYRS

Regarding `C[C@H]1[C@H](NC(=O)/C(=N\OC(C)(C)C(=O)O)c2csc(N)n2)C(=O)N1S(=O)(=O)O` [AZTREONAM], the IC50 result in assay [1], in assay [2] (cho-k1), in assay [3], in assay [4], in assay [5] and in assay [6] (cho-k1) was “Not Active” each time. Moreover, the Ki – broadly, the equilibrium dissociation constant of an inhibitor or competing ligand from its target – in assay [3] is recorded as “Not Active”.

As to `O=C(O)CCNC(=O)c1ccc(/N=N/c2ccc(O)c(C(=O)O)c2)cc1` [BALSALAZIDE], the IC50 entry in assay [1], in assay [2] (cho-k1), in assay [3], in assay [4], in assay [5] and in assay [6] (cho-k1) was “Not Active” throughout. Further, the Ki result in assay [3] is “Not Active”.

Take `COc1cc(OC)c(C(=O)CCCN2CCCC2)c(OC)c1` [BUFLOMEDIL]: the IC50 result in assay [1], in assay [2] (cho-k1), in assay [3], in assay [4], in assay [5] and in assay [6] (cho-k1) was “Not Active” throughout. Also, the Ki result in assay [3] was “Not Active”.

As for `Cn1c(=O)c2c(ncn2C)n(C)c1=O` [CAFFEINE], the IC50 entry in assay [1], in assay [2] (cho-k1), in assay [3], in assay [4], in assay [5] and in assay [6] (cho-k1) was “Not Active” in each case. Besides, in assay [3], the inhibitory constant (Ki) entry is listed as “Not Active”.

For the compound `ClC(Cl)(Cl)Cl` [CARBON TETRACHLORIDE], the half-maximal inhibitory concentration (IC50) entry in assay [1], in assay [2] (cho-k1), in assay [3], in assay [4], in assay [5] and in assay [6] (cho-k1) was “Not Active” in each case. Besides, the inhibition constant Ki result in assay [3] is on record as “Not Active”.

Take `CNC1=Nc2ccc(Cl)cc2C(c2ccccc2)=[N+]([O-])C1` [CHLORDIAZEPOXIDE]: the IC50 entry in assay [1], in assay [2] (cho-k1), in assay [3], in assay [4], in assay [5] and in assay [6] (cho-k1) was “Not Active” in each case. For the same compound, in assay [3], the Ki result is given as “Not Active”.

Consider `Cc1cc(O)cc(C)c1Cl` [CHLOROXYLENOL], for which the IC50 entry in assay [1], in assay [2] (cho-k1), in assay [3], in assay [4], in assay [5] and in assay [6] (cho-k1) was “Not Active” throughout. The Ki result in assay [3] is given as “Not Active”.

`CCCNC(=O)NS(=O)(=O)c1ccc(Cl)cc1` [CHLORPROPAMIDE]: the IC50 result in assay [1], in assay [2] (cho-k1), in assay [3], in assay [4], in assay [5] and in assay [6] (cho-k1) was “Not Active” throughout. Moreover, in assay [3], the Ki result is on record as “Not Active”.

With `NS(=O)(=O)c1cc(C2(O)NC(=O)c3ccccc32)ccc1Cl` (configuration not stated) [CHLORTHALIDONE], the IC50 entry in assay [1], in assay [2] (cho-k1), in assay [3], in assay [4], in assay [5] and in assay [6] (cho-k1) was “Not Active” in each case. In addition, the Ki entry in assay [3] was “Not Active”.

As to `O=C(O)CC(O)(CC(=O)O)C(=O)O` [CITRIC ACID], the IC50 entry in assay [1], in assay [2] (cho-k1), in assay [3], in assay [4], in assay [5] and in assay [6] (cho-k1) was “Not Active” each time. In addition, the Ki result in assay [3] is listed as “Not Active”.

For the compound `CC(C)NCC(O)c1ccccc1Cl` (configuration not stated) [CLORPRENALINE], the IC50 entry in assay [1], in assay [2] (cho-k1), in assay [3], in assay [4], in assay [5] and in assay [6] (cho-k1) was “Not Active” throughout. Also, in assay [3], the Ki result is “Not Active”.

For `CN1CCN(C(c2ccccc2)c2ccccc2)CC1` [CYCLIZINE], the IC50 – broadly, the concentration that gives 50% inhibition – in assay [1] is “Not Active”; in assay [2] (cho-k1) it was “Not Active”; in assay [3], “Not Active”; in assay [4] it was “Not Active”; in assay [5], “Not Active”; in assay [6] (read-out: IC50) it was 1020 nM. Besides, the Ki entry is “Not Active” in assay [3] and 535 nM in assay [6].

As for `CN1C[C@@H]2C[C@H]1CN2c1cc2c(cc1F)c(=O)c(C(=O)O)cn2C1CC1` [DANOFLOXACIN], the IC50 result in assay [1], in assay [2] (cho-k1), in assay [3], in assay [4], in assay [5] and in assay [6] (cho-k1) was “Not Active” throughout. For the same compound, the Ki entry in assay [3] is “Not Active”.

On to `COc1cccc2c1C(=O)c1c(O)c3c(c(O)c1C2=O)C[C@@](O)(C(C)=O)C[C@@H]3O[C@H]1C[C@H](N)[C@H](O)[C@H](C)O1` [DAUNORUBICIN], for which the IC50 result in assay [1], in assay [2] (cho-k1), in assay [3], in assay [4], in assay [5] and in assay [6] (cho-k1) was “Not Active” each time. For the same compound, the Ki entry in assay [3] is given as “Not Active”.

For `O=C(O)c1cc(-c2ccc(F)cc2F)ccc1O` [DIFLUNISAL], the concentration for half-maximal inhibition (IC50) result in assay [1], in assay [2] (cho-k1), in assay [3], in assay [4], in assay [5] and in assay [6] (cho-k1) was “Not Active” each time. In addition, in assay [3], the inhibitory constant (Ki) result is reported as “Not Active”.

For `C[S+](C)[O-]` [DIMETHYL SULFOXIDE], the IC50 entry in assay [1], in assay [2] (cho-k1), in assay [3], in assay [4], in assay [5] and in assay [6] (cho-k1) was “Not Active” throughout. The Ki entry in assay [3] is “Not Active”.

In the case of `CC1=NN(c2ccccc2)C(=O)C1` [EDARAVONE], the IC50 result in assay [1], in assay [2] (cho-k1), in assay [3], in assay [4], in assay [5] and in assay [6] (cho-k1) was “Not Active” each time. For the same compound, in assay [3], the Ki entry is recorded as “Not Active”.

Consider `CC(C)C[C@H]1C(=O)N2CCC[C@H]2[C@]2(O)O[C@](NC(=O)[C@@H]3C=C4c5cccc6[nH]cc(c56)C[C@H]4N(C)C3)(C(C)C)C(=O)N12` [ERGOCRYPTINE], for which the IC50 result was “Not Active” in assay [1]; 2.63 nM in assay [2] (read-out: IC50); “Not Active” in assay [3]; “Not Active” in assay [4]; “Not Active” in assay [5]; 147 nM in assay [6] (read-out: IC50). In addition, the Ki in assay [2] (read-out: Ki) was 1.5 nM; in assay [3] it was “Not Active”; in assay [6], 77 nM.

`C[C@]12CC[C@@H]3c4ccc(O)cc4CC[C@H]3[C@@H]1C[C@@H](O)[C@@H]2O` [ESTRIOL]: the IC50 entry in assay [1], in assay [2] (cho-k1), in assay [3], in assay [4], in assay [5] and in assay [6] (cho-k1) was “Not Active” throughout. Moreover, in assay [3], the Ki entry was “Not Active”.

For `C#C[C@]1(O)CC[C@H]2[C@@H]3CCC4=CC(=O)CC[C@]4(C)[C@H]3CC[C@@]21C` [ETHISTERONE], the IC50 entry in assay [1], in assay [2] (cho-k1), in assay [3], in assay [4], in assay [5] and in assay [6] (cho-k1) was “Not Active” each time. Besides, the Ki entry in assay [3] was “Not Active”.

For the compound `CC(O)(P(=O)(O)O)P(=O)(O)O` [ETIDRONIC ACID], the IC50 result in assay [1], in assay [2] (cho-k1), in assay [3], in assay [4], in assay [5] and in assay [6] (cho-k1) was “Not Active” in each case. In addition, the Ki result in assay [3] is listed as “Not Active”.

For the compound `CC(C)(C(=O)O)c1ccc(C(O)CCCN2CCC(C(O)(c3ccccc3)c3ccccc3)CC2)cc1` (configuration not stated) [FEXOFENADINE], the IC50 result in assay [1], in assay [2] (cho-k1), in assay [3], in assay [4], in assay [5] and in assay [6] (cho-k1) was “Not Active” in each case. Moreover, in assay [3], the Ki entry was “Not Active”.
